In PubChem BioAssay (NCI):
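Where inhibition never reached the appropriate level, the endpoint shown equals the highest concentration tested. Otherwise, values were interpolated linearly from a five-concentration, 48-hour dose response in 96-well plates. GI50: concentration for 50% inhibition of growth. TGI denotes the concentration required for complete inhibition of growth.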

Columns and labels:
Experiment in all cases: DTP human tumour cell line panel, 48 h
A498 renal = system: A498 renal
OVCAR-4 ovarian = system: OVCAR-4 ovarian
HOP-92 NSCLC = system: HOP-92 NSCLC
SW-620 colon = system: SW-620 colon
HOP-62 NSCLC = system: HOP-62 NSCLC
786-0 renal = system: 786-0 renal
SK-OV-3 ovarian = system: SK-OV-3 ovarian
CCRF-CEM leukemia = system: CCRF-CEM leukemia
HT29 colon = system: HT29 colon
MOLT-4 leukemia = system: MOLT-4 leukemia
SK-MEL-28 melanoma = system: SK-MEL-28 melanoma
PC-3 prostate = system: PC-3 prostate
NCI-H522 lung = system: NCI-H522 lung
EKVX NSCLC = system: EKVX NSCLC
T-47D breast = system: T-47D breast
SNB-75 CNS = system: SNB-75 CNS
DU-145 prostate = system: DU-145 prostate
MCF7 breast = system: MCF7 breast
RPMI-8226 leukemia = system: RPMI-8226 leukemia
OVCAR-3 ovarian = system: OVCAR-3 ovarian
LOX IMVI melanoma = system: LOX IMVI melanoma
NCI-H226 lung = system: NCI-H226 lung
COLO 205 colon = system: COLO 205 colon
SNB-19 CNS = system: SNB-19 CNS
MDA-MB-435 = system: MDA-MB-435
TK-10 renal = system: TK-10 renal
K-562 leukemia = system: K-562 leukemia
SK-MEL-2 melanoma = system: SK-MEL-2 melanoma
CAKI-1 renal = system: CAKI-1 renal
HS 578T breast = system: HS 578T breast
NCI-H460 lung = system: NCI-H460 lung
BT-549 breast = system: BT-549 breast
ACHN renal = system: ACHN renal
RXF 393 renal = system: RXF 393 renal
KM12 colon = system: KM12 colon
NCI-H23 lung = system: NCI-H23 lung
HCC-2998 colon = system: HCC-2998 colon
SF-268 CNS = system: SF-268 CNS
SN12C renal = system: SN12C renal
SF-539 CNS = system: SF-539 CNS
SF-295 CNS = system: SF-295 CNS
HL-60(TB) leukemia = system: HL-60(TB) leukemia
OVCAR-5 ovarian = system: OVCAR-5 ovarian
MALME-3M melanoma = system: MALME-3M melanoma
OVCAR-8 ovarian = system: OVCAR-8 ovarian
M14 melanoma = system: M14 melanoma
HCT-15 colon = system: HCT-15 colon
UO-31 renal = system: UO-31 renal
MDA-MB-231 breast = system: MDA-MB-231 breast
HCT-116 colon = system: HCT-116 colon
A549 NSCLC = system: A549 NSCLC
U251 CNS = system: U251 CNS
NCI/ADR-RES ovarian = system: NCI/ADR-RES ovarian
SK-MEL-5 melanoma = system: SK-MEL-5 melanoma
UACC-62 melanoma = system: UACC-62 melanoma

`CCn1c2ccc(O)cc2c2c(C)c3c[n+](C)ccc3c(C)c21` showed a GI50 (A498 renal) of 3.71 µM, a TGI (A498 renal) of 59.4 µM and a GI50 (OVCAR-4 ovarian) of 5.83 µM. It also gave a TGI (OVCAR-4 ovarian) of 47.1 µM, a GI50 (HOP-92 NSCLC) of 2.07 µM and a TGI (HOP-92 NSCLC) of 30.3 µM. The GI50 (SW-620 colon) was 3.85 µM, the TGI (SW-620 colon) was over 100 µM and the GI50 (HOP-62 NSCLC) was 1.18 µM. For the same compound, the TGI (HOP-62 NSCLC) was 21 µM, the GI50 (786-0 renal) was 0.52 µM and the TGI (786-0 renal) was over 100 µM. The GI50 (SK-OV-3 ovarian) was 7.41 µM, the TGI (SK-OV-3 ovarian) was 83.8 µM and the GI50 (CCRF-CEM leukemia) was 5.7 µM. For the same compound, the TGI (CCRF-CEM leukemia) was over 100 µM, the GI50 (HT29 colon) was 13.2 µM and the TGI (HT29 colon) was over 100 µM. The GI50 (MOLT-4 leukemia) was 2.06 µM, the TGI (MOLT-4 leukemia) was 95.1 µM and the GI50 (SK-MEL-28 melanoma) was 2.83 µM. For the same compound, the TGI (SK-MEL-28 melanoma) was 16 µM, the GI50 (PC-3 prostate) was 15.2 µM and the TGI (PC-3 prostate) was over 100 µM. The GI50 (NCI-H522 lung) was 1.46 µM, the TGI (NCI-H522 lung) was 10.4 µM and the GI50 (EKVX NSCLC) was 10.9 µM. The TGI (EKVX NSCLC) was over 100 µM, the GI50 (T-47D breast) was 0.435 µM and the TGI (T-47D breast) was 4.13 µM. For the same compound, the GI50 (SNB-75 CNS) was 1.18 µM, the TGI (SNB-75 CNS) was 35.8 µM and the GI50 (DU-145 prostate) was 5.25 µM. It also gave a TGI (DU-145 prostate) of over 100 µM, a GI50 (MCF7 breast) of 2.65 µM and a TGI (MCF7 breast) of 23.4 µM. For the same compound, the GI50 (RPMI-8226 leukemia) was 7.43 µM, the TGI (RPMI-8226 leukemia) was 68 µM and the GI50 (OVCAR-3 ovarian) was 3.59 µM. For the same compound, the TGI (OVCAR-3 ovarian) was 32.4 µM, the GI50 (LOX IMVI melanoma) was 8.83 µM and the TGI (LOX IMVI melanoma) was over 100 µM. It also gave a GI50 (NCI-H226 lung) of 0.896 µM, a TGI (NCI-H226 lung) of 27.6 µM and a GI50 (COLO 205 colon) of 3.03 µM. For the same compound, the TGI (COLO 205 colon) was 17.3 µM, the GI50 (SNB-19 CNS) was 0.272 µM and the TGI (SNB-19 CNS) was 6.88 µM. For the same compound, the GI50 (MDA-MB-435) was 9.17 µM, the TGI (MDA-MB-435) was 50.9 µM and the GI50 (TK-10 renal) was 24.3 µM. It also gave a TGI (TK-10 renal) of over 100 µM, a GI50 (K-562 leukemia) of 6.03 µM and a TGI (K-562 leukemia) of over 100 µM. It also gave a GI50 (SK-MEL-2 melanoma) of 3.91 µM, a TGI (SK-MEL-2 melanoma) of 20.1 µM and a GI50 (CAKI-1 renal) of 65.2 µM. It also gave a TGI (CAKI-1 renal) of over 100 µM, a GI50 (HS 578T breast) of 0.509 µM and a TGI (HS 578T breast) of 4.98 µM. It also gave a GI50 (NCI-H460 lung) of 0.752 µM, a TGI (NCI-H460 lung) of 11 µM and a GI50 (BT-549 breast) of 1.55 µM. It also gave a TGI (BT-549 breast) of 8.29 µM, a GI50 (ACHN renal) of 8.85 µM and a TGI (ACHN renal) of over 100 µM. It also gave a GI50 (RXF 393 renal) of 5.58 µM, a TGI (RXF 393 renal) of over 100 µM and a GI50 (KM12 colon) of 2 µM. It also gave a TGI (KM12 colon) of 23.7 µM, a GI50 (NCI-H23 lung) of 1.44 µM and a TGI (NCI-H23 lung) of 25.8 µM. The GI50 (HCC-2998 colon) was 3.9 µM, the TGI (HCC-2998 colon) was 23.4 µM and the GI50 (SF-268 CNS) was 0.122 µM. For the same compound, the TGI (SF-268 CNS) was 4.33 µM, the GI50 (SN12C renal) was 0.152 µM and the TGI (SN12C renal) was 3.03 µM. It also gave a GI50 (SF-539 CNS) of 0.873 µM, a TGI (SF-539 CNS) of 14.8 µM and a GI50 (SF-295 CNS) of 0.748 µM. The TGI (SF-295 CNS) was 31.4 µM, the GI50 (HL-60(TB) leukemia) was 40.8 µM and the TGI (HL-60(TB) leukemia) was over 100 µM. For the same compound, the GI50 (OVCAR-5 ovarian) was 23.8 µM, the TGI (OVCAR-5 ovarian) was over 100 µM and the GI50 (MALME-3M melanoma) was 1.32 µM. For the same compound, the TGI (MALME-3M melanoma) was 7.12 µM, the GI50 (OVCAR-8 ovarian) was 1.47 µM and the TGI (OVCAR-8 ovarian) was 41.4 µM. The GI50 (M14 melanoma) was 4.4 µM, the TGI (M14 melanoma) was 29.2 µM and the GI50 (HCT-15 colon) was 29.4 µM. For the same compound, the TGI (HCT-15 colon) was over 100 µM, the GI50 (UO-31 renal) was 14.9 µM and the TGI (UO-31 renal) was over 100 µM. It also gave a GI50 (MDA-MB-231 breast) of 9.58 µM, a TGI (MDA-MB-231 breast) of over 100 µM and a GI50 (HCT-116 colon) of 4.55 µM. It also gave a TGI (HCT-116 colon) of over 100 µM, a GI50 (A549 NSCLC) of 3.81 µM and a TGI (A549 NSCLC) of over 100 µM. The GI50 (U251 CNS) was 0.307 µM, the TGI (U251 CNS) was 9.72 µM and the GI50 (NCI/ADR-RES ovarian) was 31.1 µM. For the same compound, the TGI (NCI/ADR-RES ovarian) was over 100 µM, the GI50 (SK-MEL-5 melanoma) was 2.27 µM and the TGI (SK-MEL-5 melanoma) was 10.8 µM. It also gave a GI50 (UACC-62 melanoma) of 2.05 µM and a TGI (UACC-62 melanoma) of 22.8 µM.
